Measurements reported in US12421249B2, “Inhibitors of APOL1 and methods of using same” (Vertex Pharmaceuticals Incorporated, priority 2020, dated 2025).

Biological target: T1, APOL1 (Homo sapiens, UniProt O14791)
T1 sequence (O14791 1-398 S342G/I384M): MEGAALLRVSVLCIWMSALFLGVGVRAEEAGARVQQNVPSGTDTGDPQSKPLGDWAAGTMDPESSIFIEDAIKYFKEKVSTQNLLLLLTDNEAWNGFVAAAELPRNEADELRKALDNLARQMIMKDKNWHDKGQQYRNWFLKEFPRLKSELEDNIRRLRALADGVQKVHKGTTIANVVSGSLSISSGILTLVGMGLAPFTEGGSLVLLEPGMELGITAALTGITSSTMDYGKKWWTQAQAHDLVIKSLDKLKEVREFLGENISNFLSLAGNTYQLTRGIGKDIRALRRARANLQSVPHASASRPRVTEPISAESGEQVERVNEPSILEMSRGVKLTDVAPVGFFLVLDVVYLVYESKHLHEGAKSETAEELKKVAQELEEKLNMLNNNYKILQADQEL
Experiment: Multi-Tox Assay (MultiTox-Fluor Multiplex Cytotoxicity Assay in tet-inducible APOL1 T-REx-HEK293 cells; Table 46 does not say which APOL1 variant G0/G1/G2)
Type: cell-based
Conditions: APOL1 variant not given; for IC50: IP50 = IC50 for cell proliferation

| SMILES | Multi-Tox Assay Max Activity (%) | IC50 [nM] | IC90 [nM] |
| --- | --- | --- | --- |
| C[C@H]1C[C@@]2(C[C@@H](c3cn(Cc4ccc(OC5CCOCC5)cc4)nn3)N1)OC[C@@H](O)c1cc(Cl)sc12 [Compound 266] | 100.0 | < 50 |  |
| C[C@H]1C[C@@]2(C[C@@H](c3cn(CC4CCOCC4)nn3)N1)OC[C@@H](O)c1cc(Cl)sc12 [Compound 267] | 99.0 | 50 to 500 |  |
| C[C@H]1C[C@@]2(C[C@@H](c3cn(Cc4cccc5c4OCCO5)nn3)N1)OC[C@@H](O)c1cc(Cl)sc12 [Compound 268] | 99.0 | 50 to 500 |  |
| C[C@H]1C[C@@]2(C[C@@H](c3cn(CC4CCOC4)nn3)N1)OC[C@@H](O)c1cc(Cl)sc12 (stereo partly drawn) [Compound 269] | 99.0 | 50 to 500 |  |
| COCC1(Cn2cc([C@@H]3C[C@]4(C[C@H](C)N3)OC[C@@H](O)c3cc(Cl)sc34)nn2)CC1 [Compound 270] | 93.0 | 50 to 500 |  |
| C[C@H]1C[C@@]2(C[C@@H](c3cn(Cc4cccc(CO)c4)nn3)N1)OC[C@@H](O)c1cc(Cl)sc12 [Compound 271] | 97.0 | < 50 |  |
| Cc1nnc(Cn2cc([C@@H]3C[C@]4(C[C@H](C)N3)OC[C@@H](O)c3cc(Cl)sc34)nn2)[nH]1 [Compound 272] | 95.0 | 50 to 500 |  |
| C[C@H]1C[C@@]2(C[C@@H](c3cn(CCC4CCCOC4)nn3)N1)OC[C@@H](O)c1cc(Cl)sc12 (stereo partly drawn) [Compound 273] |  | < 50 |  |
| Cc1ccnn1CCn1cc([C@@H]2C[C@]3(C[C@H](C)N2)OC[C@@H](O)c2cc(Cl)sc23)nn1 [Compound 274] | 97.0 | 50 to 500 |  |
| C[C@H]1C[C@@]2(C[C@@H](c3cn(Cc4ccc(O)nc4)nn3)N1)OC[C@@H](O)c1cc(Cl)sc12 [Compound 275] | 94.0 | 50 to 500 |  |
| C[C@H]1C[C@@]2(C[C@@H](c3cn(Cc4cnccn4)nn3)N1)OC[C@@H](O)c1cc(Cl)sc12 [Compound 276] | 100.0 | 50 to 500 |  |
| Cc1ncc(Cn2cc([C@@H]3C[C@]4(C[C@H](C)N3)OC[C@@H](O)c3cc(Cl)sc34)nn2)cn1 [Compound 277] | 100.0 | < 50 |  |
| COc1cccc(Cn2cc([C@@H]3C[C@]4(C[C@H](C)N3)OC[C@@H](O)c3cc(Cl)sc34)nn2)c1 [Compound 278] | 100.0 | < 50 |  |
| C[C@H]1C[C@@]2(C[C@@H](c3cn(Cc4cccc(O)c4)nn3)N1)OC[C@@H](O)c1cc(Cl)sc12 [Compound 279] | 97.0 | 50 to 500 |  |
| C[C@H]1C[C@@]2(C[C@@H](c3cn(Cc4cccnn4)nn3)N1)OC[C@@H](O)c1cc(Cl)sc12 [Compound 280] | 99.0 | 50 to 500 |  |
| C[C@H]1C[C@@]2(C[C@@H](c3cn(CC(O)c4ccccc4)nn3)N1)OC[C@@H](O)c1cc(Cl)sc12 (stereo partly drawn) [Compound 281] | 99.0 | 50 to 500 |  |
| COCCn1cc([C@@H]2C[C@]3(C[C@H](C)N2)OC[C@@H](O)c2cc(Cl)sc23)nn1 [Compound 282] | 99.0 | < 50 |  |
| C[C@H]1C[C@@]2(C[C@@H](c3cn(CC(F)F)nn3)N1)OC[C@@H](O)c1cc(Cl)sc12 [Compound 283] |  | 50 to 500 |  |
| CCC(O)Cn1cc([C@@H]2C[C@]3(C[C@H](C)N2)OC[C@@H](O)c2cc(Cl)sc23)nn1 (stereo partly drawn) [Compound 284] |  | 50 to 500 |  |
| Cc1c(Cn2cc([C@@H]3C[C@]4(C[C@H](C)N3)OC[C@@H](O)c3cc(Cl)sc34)nn2)cnn1C [Compound 285] | 98.0 | 50 to 500 |  |
| C[C@H]1C[C@@]2(C[C@@H](c3cn(CCC#N)nn3)N1)OC[C@@H](O)c1cc(Cl)sc12 [Compound 286] | 98.0 | < 50 |  |
| CC(C)N1CC(Cn2cc([C@@H]3C[C@]4(C[C@H](C)N3)OC[C@@H](O)c3cc(Cl)sc34)nn2)CC1=O (stereo partly drawn) [Compound 287] | 96.0 | 50 to 500 |  |
| C[C@H]1C[C@@]2(C[C@@H](c3cn(CCC(N)=O)nn3)N1)OC[C@@H](O)c1cc(Cl)sc12 [Compound 288] | 97.0 | 50 to 500 |  |
| C[C@H]1C[C@@]2(C[C@@H](c3cn(CC4(F)CCOCC4)nn3)N1)OC[C@@H](O)c1cc(Cl)sc12 [Compound 289] |  | > 500 |  |
| CCn1cc(Cn2cc([C@@H]3C[C@]4(C[C@H](C)N3)OC[C@@H](O)c3cc(Cl)sc34)nn2)cn1 [Compound 290] | 99.0 | 50 to 500 |  |

| SMILES | Multi-Tox Assay Max Activity (%) | IC50 [nM] | IC90 [nM] |
| --- | --- | --- | --- |
| C[C@H]1C[C@@]2(C[C@@H](c3cn(Cc4cocn4)nn3)N1)OC[C@@H](O)c1cc(Cl)sc12 [Compound 291] | 100.0 | 50 to 500 |  |
| C[C@H]1C[C@@]2(C[C@@H](c3cn(Cc4ccccn4)nn3)N1)OC[C@@H](O)c1cc(Cl)sc12 [Compound 292] | 99.0 | 50 to 500 |  |
| COc1cc(F)cc(Cn2cc([C@@H]3C[C@]4(C[C@H](C)N3)OC[C@@H](O)c3cc(Cl)sc34)nn2)c1 [Compound 293] | 100.0 | < 50 |  |
| Cc1ccc(Cn2cc([C@@H]3C[C@]4(C[C@H](C)N3)OC[C@@H](O)c3cc(Cl)sc34)nn2)nc1 [Compound 294] | 100.0 | 50 to 500 |  |
| COc1ccc(Cn2cc([C@@H]3C[C@]4(C[C@H](C)N3)OC[C@@H](O)c3cc(Cl)sc34)nn2)cc1 [Compound 295] | 99.0 | < 50 |  |
| Cc1cc(Cn2cc([C@@H]3C[C@]4(C[C@H](C)N3)OC[C@@H](O)c3cc(Cl)sc34)nn2)ccn1 [Compound 296] | 99.0 | 50 to 500 |  |
| Cc1nc(Cn2cc([C@@H]3C[C@]4(C[C@H](C)N3)OC[C@@H](O)c3cc(Cl)sc34)nn2)oc1C [Compound 297] | 99.0 | < 50 |  |
| C[C@H]1C[C@@]2(C[C@@H](c3cn(Cc4ncc(F)cc4F)nn3)N1)OC[C@@H](O)c1cc(Cl)sc12 [Compound 298] | 95.0 | 50 to 500 |  |
| C[C@@H](CO)CCn1cc([C@@H]2C[C@]3(C[C@H](C)N2)OC[C@@H](O)c2cc(Cl)sc23)nn1 [Compound 299] | 99.0 | < 50 | 50 to 500 |
| C[C@H]1C[C@@]2(C[C@@H](c3cn(C[C@H](O)CO)nn3)N1)OC[C@@H](O)c1cc(Cl)sc12 [Compound 300] | 100.0 | 50 to 500 | 50 to 500 |
| C[C@H]1C[C@@]2(C[C@@H](c3cn(CCOc4ccccc4F)nn3)N1)OC[C@@H](O)c1cc(Cl)sc12 [Compound 301] | 99.0 | < 50 |  |
| C[C@H]1C[C@@]2(C[C@@H](c3cn(Cc4ccc(O)cc4)nn3)N1)OCC(F)(F)c1cc(Cl)sc12 [Compound 302] | 94.0 | 50 to 500 |  |
| Cc1cccc(OCC(O)Cn2cc([C@@H]3C[C@]4(C[C@H](C)N3)OCC(F)(F)c3cc(Cl)sc34)nn2)c1 (stereo partly drawn) [Compound 303] | 99.0 | 50 to 500 |  |
| Cc1ccccc1C(O)Cn1cc([C@@H]2C[C@]3(C[C@H](C)N2)OCC(F)(F)c2cc(Cl)sc23)nn1 (stereo partly drawn) [Compound 304] | 99.0 | 50 to 500 |  |
| C[C@H]1C[C@@]2(C[C@@H](c3cn(CCc4ccncn4)nn3)N1)OCC(F)(F)c1cc(Cl)sc12 [Compound 305] | 100.0 | < 50 |  |
| CC(CO)CCn1cc([C@@H]2C[C@]3(C[C@H](C)N2)OCC(F)(F)c2cc(Cl)sc23)nn1 (stereo partly drawn) [Compound 306] | 99.0 | > 500 |  |
| C[C@H]1C[C@@]2(C[C@@H](c3cn(CC4CCS(=O)(=O)C4)nn3)N1)OCC(F)(F)c1cc(Cl)sc12 (stereo partly drawn) [Compound 307] | 99.0 | < 50 |  |
| C[C@H]1C[C@@]2(C[C@@H](c3cn(Cc4ccc(OC5CCOCC5)cc4)nn3)N1)OCC(F)(F)c1cc(Cl)sc12 [Compound 308] | 95.0 | 50 to 500 |  |
| C[C@H]1C[C@@]2(C[C@@H](c3cn(CC4CCOCC4)nn3)N1)OCC(F)(F)c1cc(Cl)sc12 [Compound 309] | 97.0 | 50 to 500 |  |
| C[C@H]1C[C@@]2(C[C@@H](c3cn(Cc4cccc5c4OCCO5)nn3)N1)OCC(F)(F)c1cc(Cl)sc12 [Compound 310] | 94.0 | 50 to 500 |  |
| C[C@H]1C[C@@]2(C[C@@H](c3cn(CC4CCOC4)nn3)N1)OCC(F)(F)c1cc(Cl)sc12 (stereo partly drawn) [Compound 311] | 99.0 | < 50 |  |
| COCC1(Cn2cc([C@@H]3C[C@]4(C[C@H](C)N3)OCC(F)(F)c3cc(Cl)sc34)nn2)CC1 [Compound 312] | 91.0 | > 500 | > 500 |
| C[C@H]1C[C@@]2(C[C@@H](c3cn(Cc4cccc(CO)c4)nn3)N1)OCC(F)(F)c1cc(Cl)sc12 [Compound 313] | 98.0 | 50 to 500 |  |
| C[C@H]1C[C@@]2(C[C@@H](c3cn(CCC4CCCOC4)nn3)N1)OCC(F)(F)c1cc(Cl)sc12 (stereo partly drawn) [Compound 314] | 99.0 | < 50 |  |
| Cc1ccnn1CCn1cc([C@@H]2C[C@]3(C[C@H](C)N2)OCC(F)(F)c2cc(Cl)sc23)nn1 [Compound 315] | 98.0 | 50 to 500 |  |
